Test results taken from patent publication US20240009143A1, “EXTRACTION OF SHIKONIN FROM ARNEBIA DECUMBENS ROOTS AND USE OF SHIKONIN DERIVATIVES FOR TREATING ULCERS” (KUWAIT UNIVERSITY, priority 2022, published 2024).

Test system: Heliobacter pylori
Test: In vitro testing on H. pylori
Type: cell-based
Conditions: dose of 0.06 mg
Description: The biological activity of the 4 shikonin derivatives were tested against 2 microorganisms Heliobacter pylori (H. pylori or HP) and Candida albicans (C. albicans).

Row | SMILES | inhibition associated with H. pylori [%]
1 | CC(C)=CC[C@@H](O)C1=CC(=O)c2c(O)ccc(O)c2C1=O [compound E, shikonin] | 41.6
2 | CC(=O)O[C@H](CC=C(C)C)C1=CC(=O)c2c(O)ccc(O)c2C1=O [compound D, acetylshikonin] | 41.6
